Source: US8415486B2, “IAP inhibitors” (TetraLogic Pharmaceuticals Corp., priority 2009, dated 2013)

Tests used:
XIAP BIR-3 = molecular target: T1, XIAP BIR-3 (Homo sapiens, UniProt P98170); assay: Fluorescence polarization binding to XIAP BIR-3 with labeled peptide AbuRPF-K(5-Fam)-NH2; settings: 40 nM BIR3, 5 nM labeled peptide, reported as ranges
T1 construct: 40 nM of the respective IAP BIR3
Procedure: (§1) The binding affinities of the compounds are reported as a KD value (μM). Briefly, various concentrations of test peptides were mixed with 5 nM of the fluorescently labeled peptide (i.e., a mutated N-terminal Smac peptide—AbuRPF-K(5-Fam)-NH2) and 40 nM of the respective IAP BIR3 for 15 min at RT in […] of 0.1M Potassium Phosphate buffer, pH 7.5 containing 100 mg/ml bovine g-globulin. Following incubation, the polarization values (mP) were measured on a Victor2V (available from PerkinElmer Life Sciences) using a 485 nm excitation filter and a 520 nm emission filter. The reported binding affinities (KD values) are supplied as ranges (A=<0.1 μM, B=0.1 μM to 1 μM, C=>1 μM to 10 μM, D=>10 μM).

[1] = test system: ovarian cancer cell line, SK-OV-3; assay: SK-OV-3 cell growth inhibition (MTT, 72 hrs); format: cell-based; settings: Homo sapiens, concentration giving 50% cell survival, reported as ranges
Procedure: Compounds of the invention also were tested for their ability to inhibit the growth of an ovarian cancer cell line, SK-OV-3. A known assay previously used for measuring cell growth (as described in Hansen, M. B., Nielsen, S. E., and Berg, K. (1989) J. Immunol. Methods 119, 203-210 and incorporated herein by reference in its entirety) was used. Briefly, SK-OV-3 cells are seeded in 96-well plates in McCoy's medium containing 10% fetal bovine serum albumin (5,000 per well) and incubated overnight at 37° C. The next day, test compounds are added at various concentrations (0.003-10 μM) and the plates are incubated at 37° C. for an additional 72 hrs. This incubation time was considered to be optimal for measuring inhibitory effects of the different compounds tested. 50 microliters of 5 mg/mL MTT reagent is added to each well and the plates are incubated at 37° C. for another three (3) hours. At the end of the three (3) hour incubation period, 50 microliters of DMSO is added to each well to dissolve cells and the optical density (OD) of the wells is measured with a microplate reader (Victor^2 1420, Wallac, Finland) at 535 nm. Cell survival (CS) was calculated using the following equation: CS=(OD treated well/mean OD control wells)×100%.
The CC50 (reported in the following tables), is defined as the drug concentration that results in 50% cell survival (CS), and is derived by calculating the point where the dose-response curve crosses the 50% CS point using GraphPad Prism. The reported CC50 values are supplied as ranges (A=<0.1 μM, B=0.1 μM to 1 μM, C=>1 μM to 10 μM, D=>10 μM).

cIAP-1 BIR-3 = molecular target: T2, cIAP-1 BIR-3 (Homo sapiens, UniProt Q13490); assay: Fluorescence polarization binding to cIAP-1 BIR-3 with labeled peptide AbuRPF-K(5-Fam)-NH2; settings: 40 nM BIR3, 5 nM labeled peptide, reported as ranges, read-out: KD (c-IAP-1 BIR3)
T2 construct: 40 nM of the respective IAP BIR3
Procedure: as §1

T2 sequence (Q13490 253-363 limits assumed): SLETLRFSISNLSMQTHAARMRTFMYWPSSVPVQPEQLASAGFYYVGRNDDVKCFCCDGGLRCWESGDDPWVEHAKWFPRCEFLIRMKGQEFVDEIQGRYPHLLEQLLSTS
T1 sequence (P98170 241-356 limits assumed): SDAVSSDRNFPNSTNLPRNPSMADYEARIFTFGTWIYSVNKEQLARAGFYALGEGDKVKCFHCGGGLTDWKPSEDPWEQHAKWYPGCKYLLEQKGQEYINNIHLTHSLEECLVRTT

Kd (XIAP BIR-3) | Kd (cIAP-1 BIR-3) | SMILES | CC50 [1]
< 100 nM | < 100 nM | CN[C@@H](C)C(=O)N[C@H](C(=O)N1CC[C@@H]2[C@H]1[C@@H](OCc1ccc(F)cc1)CN2S(=O)(=O)CC(C)C)C(C)(C)C [Example 38, N-{1-[6-(4-Fluoro-benzyloxy)-4-(2-methyl-propane-1-sulfonyl)-hexahydro-pyrrolo[3,2-b]pyrrole-1-carbonyl]-2,2-dimethyl-propyl}-2-methylamino-propionamide] | < 100 nM
< 100 nM | < 100 nM | CN[C@@H](C)C(=O)N[C@H](C(=O)N1CC[C@@H]2[C@H]1[C@@H](OCc1ccc(F)cc1)CN2C(=O)CC(C)C)C(C)(C)C [Example 39, N-{1-[6-(4-Fluoro-benzyloxy)-4-(3-methyl-butyryl)-hexahydro-pyrrolo[3,2-b]pyrrole-1-carbonyl]-2,2-dimethyl-propyl}-2-methylamino-propionamide] | < 100 nM
< 100 nM | < 100 nM | CN[C@@H](C)C(=O)N[C@H](C(=O)N1CC[C@@H]2[C@H]1[C@@H](OCc1ccc(F)cc1)CN2C(C)=O)C(C)(C)C [Example 40, N-{1-[4-Acetyl-6-(4-fluoro-benzyloxy)-hexahydro-pyrrolo[3,2-b]pyrrole-1-carbonyl]-2,2-dimethyl-propyl}-2-methylamino-propionamide] | < 100 nM
< 100 nM | < 100 nM | CN[C@@H](C)C(=O)N[C@H](C(=O)N1CC[C@@H]2[C@H]1[C@@H](OCc1ccc(F)cc1)CN2C(=O)N(C)C)C(C)(C)C [Example 41, (3S,3aS,6aR)-4-((S)-3,3-dimethyl-2((S)-2-(methylamino)propanamido)butanoyl)-3-(4-fluorobenzyloxy)-N,N-dimethylhexahydropyrrolo[3,2-b]pyrrole-1(2H)-carboxamide] | < 100 nM
< 100 nM | < 100 nM | CN[C@@H](C)C(=O)N[C@H](C(=O)N1CC[C@@H]2[C@H]1[C@@H](OCc1ccc(F)cc1)CN2C(=O)C(C)=O)C(C)(C)C [Example 42, N-{1-[6-(4-Fluoro-benzyloxy)-4-(2-oxo-propionyl)-hexahydro-pyrrolo[3,2-b]pyrrole-1-carbonyl]-2,2-dimethyl-propyl}-2-methylamino-propionamide] | < 100 nM
100 to 1000 nM | < 100 nM | CN[C@@H](C)C(=O)N[C@H](C(=O)N1CC[C@@H]2[C@H]1[C@@H](OCc1ccc(F)cc1)CN2C1CCOCC1)C(C)(C)C [Example 43, (S)—N—((S)-1-((3aR,6S,6aS)-6-(4-fluorobenzyloxy)-4-(tetrahydro-2H-pyran-4-yl)hexahydropyrrolo[3,2-b]pyrrol-1(2H)-yl)-3,3-dimethyl-1-oxobutan-2-yl)-2-(methylamino)propanamide] | < 100 nM
100 to 1000 nM | < 100 nM | CN[C@@H](C)C(=O)N[C@H](C(=O)N1CC[C@@H]2[C@H]1[C@@H](OCc1ccc(F)cc1)CN2C1CCCC1)C(C)(C)C [Example 44, (S)—N—((S)-1-((3aR,6S,6aS)-4-cyclopentyl-6-(4-fluorobenzyloxy)hexahydropyrrolo[3,2-b]pyrrol-1(2H)-yl)-3,3-dimethyl-1-oxobutan-2-yl)-2-(methylamino) propanamide] | < 100 nM
100 to 1000 nM | < 100 nM | CN[C@@H](C)C(=O)N[C@H](C(=O)N1CC[C@@H]2[C@H]1[C@@H](OCc1ccc(F)cc1)CN2c1ncccn1)C(C)(C)C [Example 45, (S)—N—((S)-1-((3aR,6S,6aS)-6-(4-fluorobenzyloxy)-4-(pyrimidin-2-yl)hexahydropyrrolo[3,2-b]pyrrol-1(2H)-yl)-3,3-dimethyl-1-oxobutan-2-yl)-2-(methylamino)propanamide] | < 100 nM
100 to 1000 nM | < 100 nM | CNC(C)C(=O)NC(C(=O)N1CCC2C1C(OC(=O)NCc1ccccc1)CN2C(=O)NC(C)C)C(C)(C)C (stereo not drawn) [Example 46, Benzyl-carbamic acid 4-[3,3-dimethyl-2-(2-methylamino-propionylamino)-butyryl]-1-isopropylcarbamoyl-octahydro-pyrrolo[3,2-b]pyrrol-3-yl ester] | < 100 nM
100 to 1000 nM | < 100 nM | CN[C@@H](C)C(=O)N[C@H](C(=O)N1CC[C@@H]2[C@H]1[C@@H](OC(=O)Nc1ccccc1)CN2C(=O)NC(C)C)C(C)(C)C [Example 47, Phenyl-carbamic acid 4-[3,3-dimethyl-2-(2-methylamino-propionylamino)-butyryl]-1-isopropylcarbamoyl-octahydro-pyrrolo[3,2-b]pyrrol-3-yl ester] | < 100 nM
100 to 1000 nM | < 100 nM | CN[C@@H](C)C(=O)N[C@H](C(=O)N1CC[C@@H]2[C@H]1[C@@H](OC(=O)N(c1ccccc1)c1ccccc1)CN2C(=O)NC(C)C)C(C)(C)C [Example 48, Diphenyl-carbamic acid 4-[3,3-dimethyl-2-(2-methylamino-propionylamino)-butyryl]-1-isopropylcarbamoyl-octahydro-pyrrolo[3,2-b]pyrrol-3-yl ester] | 100 to 1000 nM
100 to 1000 nM | < 100 nM | CN[C@@H](C)C(=O)N[C@H](C(=O)N1CC[C@@H]2[C@H]1[C@@H](OC(=O)Nc1cccc3ccccc13)CN2C(=O)NC(C)C)C(C)(C)C [Example 49, Naphthalen-1-yl-carbamic acid 4-[3,3-dimethyl-2-(2-methylamino-propionylamino)-butyryl]-1-isopropylcarbamoyl-octahydro-pyrrolo[3,2-b]pyrrol-3-yl ester] | < 100 nM
100 to 1000 nM | < 100 nM | CN[C@@H](C)C(=O)N[C@H](C(=O)N1CC[C@@H]2[C@H]1[C@@H](OC(=O)N(C)c1ccccc1)CN2C(=O)NC(C)C)C(C)(C)C [Example 50, Methyl-phenyl-carbamic acid 4-[3,3-dimethyl-2-(2-methylamino-propionylamino)-butyryl]-1-isopropylcarbamoyl-octahydro-pyrrolo[3,2-b]pyrrol-3-yl ester] | 100 to 1000 nM
100 to 1000 nM | < 100 nM | CN[C@@H](C)C(=O)N[C@H](C(=O)N1CC[C@@H]2[C@H]1[C@@H](OC(=O)Nc1ccc3ccccc3c1)CN2C(=O)NC(C)C)C(C)(C)C [Example 51, Naphthalen-2-yl-carbamic acid 4-[3,3-dimethyl-2-(2-methylamino-propionylamino)-butyryl]-1-isopropylcarbamoyl-octahydro-pyrrolo[3,2-b]pyrrol-3-yl ester] | 1000 to 10000 nM
1000 to 10000 nM | < 100 nM | CCNC(=O)O[C@H]1CN(C(=O)NC(C)C)[C@@H]2CCN(C(=O)[C@@H](NC(=O)[C@H](C)NC)C(C)(C)C)[C@H]12 [Example 52, Ethyl-carbamic acid 4-[3,3-dimethyl-2-(2-methylamino-propionylamino)-butyryl]-1-isopropylcarbamoyl-octahydro-pyrrolo[3,2-b]pyrrol-3-yl ester] | 1000 to 10000 nM
100 to 1000 nM | < 100 nM | CCCCNC(=O)O[C@H]1CN(C(=O)NC(C)C)[C@@H]2CCN(C(=O)[C@@H](NC(=O)[C@H](C)NC)C(C)(C)C)[C@H]12 [Example 53, Butyl-carbamic acid 4-[3,3-dimethyl-2-(2-methylamino-propionylamino)-butyryl]-1-isopropylcarbamoyl-octahydro-pyrrolo[3,2-b]pyrrol-3-yl ester] | 100 to 1000 nM
1000 to 10000 nM | < 100 nM | CN[C@@H](C)C(=O)N[C@H](C(=O)N1CC[C@@H]2[C@H]1[C@@H](OC(=O)NC(C)C)CN2C(=O)NC(C)C)C(C)(C)C [Example 54, Isopropyl-carbamic acid 4-[3,3-dimethyl-2-(2-methylamino-propionylamino)-butyryl]-1-isopropylcarbamoyl-octahydro-pyrrolo[3,2-b]pyrrol-3-yl ester] | 1000 to 10000 nM
1000 to 10000 nM | < 100 nM | CN[C@@H](C)C(=O)N[C@H](C(=O)N1CC[C@@H]2[C@H]1[C@@H](OC(=O)NC(C)(C)C)CN2C(=O)NC(C)C)C(C)(C)C [Example 55, tert-Butyl-carbamic acid 4-[3,3-dimethyl-2-(2-methylamino-propionylamino)-butyryl]-1-isopropylcarbamoyl-octahydro-pyrrolo[3,2-b]pyrrol-3-yl ester] | 100 to 1000 nM
